Experimental data taken from patent US20230302022A1, “PREVENTING OR MITIGATING CHEMOTHERAPY INDUCED ALOPECIA USING VITAMIN D” (priority 2016, published 2023).

Key:
[1] = tested on: Sprague-Dawley or Long Evans rats; assay: CIA in 5-day-old Sprague-Dawley or Long Evans rats, calcitriol 1, 2 or 3 μg/mL; assay type: in vivo, rat
C3H/HeJ mouse = assay: C3H/HeJ model of alopecia areata; assay type: in vivo; conditions: 0.2 μg for 15 days, observed 30 days
Excerpt: Neonatal Rat model and PCA model. Sprague Dawley rats were purchased from Charles River Laboratories (Wilmington, MA). C3H/HeJ mouse were purchased from Jackson Laboratories (Bar Harbour, ME). Rodents were housed and fed according to NIH guidelines. […] Uskokovic (Hoffman-La Roche, Nutley, NJ). For experiments involving C3H/HeJ mice, 1,25(OH)2D3 was purchased from Sigma (St. Louis, M0). C3H/HeJ Model of Abpecia Areata. Retired breeders (8 months of age) were observed daily for the development of AA lesions.

For `C=C1/C(=C\C=C2/CCC[C@]3(C)[C@@H]([C@H](C)CCCC(C)(C)O)CC[C@@H]23)C[C@@H](O)C[C@@H]1O` [Calcitriol, (5Z,7E)-9,10-secocholesta-5,7.10(19Hriene-1 a,33.25-triol], the “location of hair growth” value ([1]; 1 μg/mL) was “limited to the treated area”, the “location of hair growth” value ([1]; 3 μg/mL) was “also observed on the dorsal region” and the “protection from CIA” value ([1]; 6-hour exposure) was “complete protection”. For the same molecule, the “protection from CIA” value ([1]; 1.5 hour exposure) was “no protection” and the “regrowth of hair in alopecic lesions” value (C3H/HeJ mouse) was “No regrowth of hair”.
